{"source": "paper PMC3407089", "about": "“Influence of GABAA Receptor α Subunit Isoforms on the Benzodiazepine Binding Site” (PLoS ONE, 2012)", "key": {"[1]": {"target": "wild-type α1β2γ2 receptors", "design": "method as in PMID 19804380", "settings": "cited from earlier work"}, "[2]": {"tested_on": "T1, α5T210Cβ2γ2 GABAA receptor", "T1 construct": "expressed in transfected cells; host or cells: Xenopus laevis oocytes (cRNA injection)", "experiment": "Covalent reaction at the functional level (two-electrode voltage clamp, Xenopus oocytes)", "assay_type": "cell-based", "settings": "after 10 µM 3-NCS and removal of non-covalently reacted 3-NCS", "method": "(§1) Capped cRNAs were synthesized (Ambion, Austin, TX, USA) from the linearized plasmids with a cytomegalovirus promotor (pCMVvectors) containing the different subunits, respectively. A poly-A tail of about 400 residues was added to each transcript using yeast poly- A polymerase (United States Biologicals, Cleveland, OH, USA). The concentration of the cRNA was quantified on a formaldehyde gel using Radiant Red stain (Bio-Rad) for visualization of the RNA. Known concentrations of RNA ladder (Invitrogen) were loaded as standard on the same gel. cRNAs were precipitated in ethanol/isoamylalcohol 19∶ 1, the dried pellet dissolved in water and stored at −80°C. cRNA mixtures were prepared from these stock solutions and stored at −80°C. Xenopus laevis oocytes were prepared, injected and defolliculated as described previously, [39]. They were injected with 50 nL of the cRNA solution containing wild type or mutated α1 or α2, α3, α5, α6 and wild type β2 and γ2 subunits at a concentration of 10 nM : 10 nM : 50 nM [40] and then incubated in modified Barth’s solution at +18°C for at least 24 h before the measurements.\n(§2) Currents were measured using a modified two-electrode voltage clamp amplifier Oocyte clamp OC-725 (Warner Instruments) in combination with a XY-recorder (90% response time 0.1s) or digitized at 100 Hz using a PowerLab 2/20 (AD Instruments) using the computer programs Chart (ADInstruments GmbH, Spechbach, Germany). Tests with a model oocyte were performed to ensure linearity in the larger current range. The response was linear up to 15 µA.\n(§3) Electrophysiological experiments were performed by using the two-electrode voltage clamp method at a holding potential of −80 mV. The perfusion medium contained 90 mM NaCl, 1 mM KCl, 1 mM MgCl2, 1 mM CaCl2, and 5 mM Na-HEPES (pH 7.4) and was applied by gravity flow 6 ml/min. The perfusion medium was applied through a glass capillary with an inner diameter of 1.35 mm, the mouth of which was placed about 0.4 mm from the surface of the oocyte. Allosteric modulation via the benzodiazepine site was measured at a GABA concentration eliciting 2–5% of the maximal GABA current amplitude. GABA was applied for 20 s alone or in combination with allosteric compound. 6 ml of the covalent reacting compound was applied to the oocyte and incubated for 3 min while stopping the flow of the perfusion medium. Modulation of GABA currents was expressed as (I(modulator + GABA)/IGABA –1) * 100%. The perfusion system was cleaned between drug applications by washing with DMSO to avoid contamination."}, "[3]": {"tested_on": "α5S209Cβ2γ2 GABAA receptor", "experiment": "Covalent reaction at the functional level (two-electrode voltage clamp, Xenopus oocytes)", "assay_type": "cell-based", "settings": "after 10 µM 3-NCS and removal of non-covalently reacted 3-NCS", "method": "as §1, §2, §3"}, "[4]": {"tested_on": "α6S203Cβ2γ2 GABAA receptor", "experiment": "Covalent reaction at the functional level (two-electrode voltage clamp, Xenopus oocytes)", "assay_type": "cell-based", "settings": "after 10 µM 3-NCS and removal of non-covalently reacted 3-NCS", "method": "as §1, §2, §3"}, "[5]": {"tested_on": "α6N204Cβ2γ2 GABAA receptor", "experiment": "Covalent reaction at the functional level (two-electrode voltage clamp, Xenopus oocytes)", "assay_type": "cell-based", "settings": "after 10 µM 3-NCS and removal of non-covalently reacted 3-NCS", "method": "as §1, §2, §3"}, "[6]": {"tested_on": "α5T208Cβ2γ2 GABAA receptor", "experiment": "Covalent reaction at the functional level (two-electrode voltage clamp, Xenopus oocytes)", "assay_type": "cell-based", "settings": "after 10 µM 3-NCS and removal of non-covalently reacted 3-NCS", "method": "as §1, §2, §3"}, "[7]": {"tested_on": "α3S230Cβ2γ2 GABAA receptor", "experiment": "Covalent reaction at the functional level (two-electrode voltage clamp, Xenopus oocytes)", "assay_type": "cell-based", "settings": "after 10 µM 3-NCS and removal of non-covalently reacted 3-NCS", "method": "as §1, §2, §3"}, "[8]": {"tested_on": "α3T231Cβ2γ2 GABAA receptor", "experiment": "Covalent reaction at the functional level (two-electrode voltage clamp, Xenopus oocytes)", "assay_type": "cell-based", "settings": "after 10 µM 3-NCS and removal of non-covalently reacted 3-NCS", "method": "as §1, §2, §3"}, "[9]": {"tested_on": "α1S204Cβ2γ2 GABAA receptor", "experiment": "Covalent reaction at the functional level (two-electrode voltage clamp, Xenopus oocytes)", "assay_type": "cell-based", "settings": "after 10 µM 3-NCS and removal of non-covalently reacted 3-NCS", "method": "as §1, §2, §3"}, "[10]": {"tested_on": "wild type GABAA receptors", "experiment": "Covalent reaction at the functional level (two-electrode voltage clamp, Xenopus oocytes)", "assay_type": "cell-based", "settings": "all wild type receptors", "method": "as §1, §2, §3"}, "[11]": {"target": "α1S205Cβ2γ2 GABAA receptor (Rattus norvegicus, UniProt P18508+P62813, S232C)", "sequence (P62813 28-455 S232C)": "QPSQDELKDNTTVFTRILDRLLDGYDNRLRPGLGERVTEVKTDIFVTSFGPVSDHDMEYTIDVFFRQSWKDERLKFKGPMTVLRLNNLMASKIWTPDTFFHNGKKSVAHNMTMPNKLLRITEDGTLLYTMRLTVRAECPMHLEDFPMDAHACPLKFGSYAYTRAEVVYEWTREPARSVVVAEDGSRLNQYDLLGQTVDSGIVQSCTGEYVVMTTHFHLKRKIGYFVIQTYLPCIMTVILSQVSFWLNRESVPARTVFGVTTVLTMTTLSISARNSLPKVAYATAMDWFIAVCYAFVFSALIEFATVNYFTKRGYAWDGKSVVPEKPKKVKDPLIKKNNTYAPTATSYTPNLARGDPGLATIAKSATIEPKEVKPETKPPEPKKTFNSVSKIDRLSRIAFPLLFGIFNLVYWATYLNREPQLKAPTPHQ", "sequence (P18508 39-466)": "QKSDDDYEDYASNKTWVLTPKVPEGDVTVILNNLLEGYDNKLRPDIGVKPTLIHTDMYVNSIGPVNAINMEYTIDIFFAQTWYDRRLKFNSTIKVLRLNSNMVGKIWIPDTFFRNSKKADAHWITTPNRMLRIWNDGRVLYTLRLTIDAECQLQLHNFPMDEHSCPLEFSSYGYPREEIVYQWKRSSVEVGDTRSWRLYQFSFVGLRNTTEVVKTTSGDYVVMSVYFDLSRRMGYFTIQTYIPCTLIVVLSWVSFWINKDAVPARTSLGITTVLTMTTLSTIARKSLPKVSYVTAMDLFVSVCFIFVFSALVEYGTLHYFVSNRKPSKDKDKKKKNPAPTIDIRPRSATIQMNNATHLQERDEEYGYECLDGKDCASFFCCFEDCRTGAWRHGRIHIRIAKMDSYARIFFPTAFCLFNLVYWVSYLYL", "sequence (P63138 26-474 partner)": "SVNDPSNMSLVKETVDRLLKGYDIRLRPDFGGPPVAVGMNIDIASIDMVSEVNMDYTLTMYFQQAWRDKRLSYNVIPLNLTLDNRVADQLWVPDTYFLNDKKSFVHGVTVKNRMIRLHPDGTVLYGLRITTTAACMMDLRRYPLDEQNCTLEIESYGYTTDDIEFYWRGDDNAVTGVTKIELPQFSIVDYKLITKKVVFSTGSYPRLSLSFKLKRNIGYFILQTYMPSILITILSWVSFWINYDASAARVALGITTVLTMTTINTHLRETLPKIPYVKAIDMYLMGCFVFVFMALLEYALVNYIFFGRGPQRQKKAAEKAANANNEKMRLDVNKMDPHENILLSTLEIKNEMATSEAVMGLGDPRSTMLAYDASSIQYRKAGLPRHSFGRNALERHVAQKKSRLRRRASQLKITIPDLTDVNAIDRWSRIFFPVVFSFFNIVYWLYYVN", "design": "method as in PMID 19804380", "settings": "10 µM 3-NCS; cited from earlier work"}, "[12]": {"target": "α2S204Cβ2γ2 GABAA receptor (Rattus norvegicus, UniProt P18508+P23576, S232C)", "sequence (P23576 29-451 S232C)": "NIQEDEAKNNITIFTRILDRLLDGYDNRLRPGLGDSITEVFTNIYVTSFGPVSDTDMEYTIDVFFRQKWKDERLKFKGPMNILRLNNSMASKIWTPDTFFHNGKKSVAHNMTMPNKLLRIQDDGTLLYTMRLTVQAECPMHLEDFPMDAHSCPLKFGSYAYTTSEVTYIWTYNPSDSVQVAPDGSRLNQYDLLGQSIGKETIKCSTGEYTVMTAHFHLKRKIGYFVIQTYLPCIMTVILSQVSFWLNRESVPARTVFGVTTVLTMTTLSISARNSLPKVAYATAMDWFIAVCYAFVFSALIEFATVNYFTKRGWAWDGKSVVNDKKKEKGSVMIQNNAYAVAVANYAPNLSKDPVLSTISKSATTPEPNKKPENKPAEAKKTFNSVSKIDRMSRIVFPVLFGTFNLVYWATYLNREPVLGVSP", "sequence (P18508 39-466)": "as the sequence (P18508 39-466) above", "sequence (P63138 26-474 partner)": "as the sequence (P63138 26-474 partner) above", "experiment": "Covalent reaction at the functional level (two-electrode voltage clamp, Xenopus oocytes)", "assay_type": "cell-based", "settings": "after 10 µM 3-NCS and removal of non-covalently reacted 3-NCS; read-out: % allosteric modulation, 3-NCS", "method": "as §1\nTests with a model oocyte were performed to ensure linearity in the larger current range.\nElectrophysiological experiments were performed by using the two-electrode voltage clamp method at a holding potential of −80 mV. The perfusion medium contained 90 mM NaCl, 1 mM KCl, 1 mM MgCl2, 1 mM CaCl2, and 5 mM Na-HEPES (pH 7.4) and was applied by gravity flow 6 ml/min. The perfusion medium was applied through a glass capillary with an inner diameter of 1.35 mm, the mouth of which was placed about 0.4 mm from the surface of the oocyte. Allosteric modulation via the benzodiazepine site was measured at a GABA concentration eliciting 2–5% of the maximal GABA current amplitude."}, "α2β2γ2 receptors": {"target": "T2, α2β2γ2 receptors (Rattus norvegicus, UniProt P18508+P23576)", "T2 construct": "expressed in transfected cells; host or cells: HEK293 cells (ATCC CRL 1573), membranes", "T2 sequence (P23576 29-451)": "as the sequence (P23576 29-451 S232C) above, with C204S counted along it", "T2 sequence (P63138 25-474 partner limits assumed)": "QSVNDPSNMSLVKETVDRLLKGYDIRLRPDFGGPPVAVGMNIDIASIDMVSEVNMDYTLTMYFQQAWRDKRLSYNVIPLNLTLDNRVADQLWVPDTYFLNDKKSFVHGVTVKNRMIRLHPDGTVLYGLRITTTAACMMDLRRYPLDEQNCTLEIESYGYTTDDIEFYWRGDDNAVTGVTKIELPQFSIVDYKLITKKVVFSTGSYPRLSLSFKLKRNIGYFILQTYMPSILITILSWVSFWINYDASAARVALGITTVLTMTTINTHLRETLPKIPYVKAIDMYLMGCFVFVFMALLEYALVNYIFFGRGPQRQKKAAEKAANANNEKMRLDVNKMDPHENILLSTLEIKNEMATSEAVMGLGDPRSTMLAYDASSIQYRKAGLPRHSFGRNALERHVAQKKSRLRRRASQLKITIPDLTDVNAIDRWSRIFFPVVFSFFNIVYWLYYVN", "T2 sequence (P18508 39-466)": "as the sequence (P18508 39-466) above", "experiment": "Radioactive ligand binding / displacement of [^3H]Ro 15–1788", "method": "For α5 containing receptors β2 was replaced by β1. […] Culturing of cells and membrane preparation were done as described before.\nThe properties of the recombinant mutant receptors were only estimated. For this affinity estimate, membranes were re-suspended in phosphate buffer using a Teflon homogenizer. […] The final protein concentration was 0.1–1 mg of protein/ml. […] Membranes were collected by rapid vacuum filtration on GF/C filters. After three washing steps (3 sec each) with 5 ml of phosphate buffer, the filter-retained radioactivity was determined by liquid scintillation counting."}}, "note": "Where two headings read alike, the source gives them in different places."}
{"smiles": "CN1C(=O)C(N=C=S)N=C(c2ccccc2)c2cc([N+](=O)[O-])ccc21", "note": "(centres unmarked) [3-NCS]", "values": [{"measurement": "Ki", "setting": "[1]; radioligand [^3H]Ro15–1788, read-out: Ki, displacement of [^3H]Ro15–1788", "result": "340 ± 16", "unit": "nM"}, {"measurement": "Ki", "setting": "[1]; radioligand [^3H]flunitrazepam, read-out: Ki, displacement of [^3H]flunitrazepam", "result": "240 ± 55", "unit": "nM"}, {"measurement": "% allosteric modulation, 3-NCS", "setting": "[2]", "result": "10±5", "unit": "%"}, {"measurement": "% allosteric modulation, 3-NCS", "setting": "[3]", "result": "46±17", "unit": "%"}, {"measurement": "% allosteric modulation, 3-NCS", "setting": "[4]", "result": "0±2", "unit": "%"}, {"measurement": "% allosteric modulation, 3-NCS", "setting": "[5]", "result": "−4±6", "unit": "%"}, {"measurement": "% allosteric modulation, 3-NCS", "setting": "[6]", "result": "23±18", "unit": "%"}, {"measurement": "% allosteric modulation, 3-NCS", "setting": "[7]", "result": "15±11", "unit": "%"}, {"measurement": "% allosteric modulation, 3-NCS", "setting": "[8]", "result": "28±16", "unit": "%"}, {"measurement": "% allosteric modulation, 3-NCS", "setting": "[9]", "result": "4±4", "unit": "%"}, {"measurement": "Irreversible change of GABA current amplitude after 3-NCS (in words)", "setting": "[10]", "result": "failed to show any changes in the current amplitude"}, {"measurement": "Covalent reaction with 3-NCS (in words)", "setting": "[11]", "result": "resulted in covalent reaction"}, {"measurement": "activation at 10 µM", "setting": "[12]", "result": "1 ± 10", "unit": "%"}, {"measurement": "Ki", "setting": "α2β2γ2 receptors", "result": "1550 ± 250", "unit": "nM"}]}
